Experiments:
otitis externa [1] = assay: photodisinfection of otitis externa treatment site (Examples V to VII); format: in vivo
Protocol: A photosensitizing composition comprising of methylene blue at a concentration of about 0.1 wt % is applied to the otitis externa treatment site. Light at a wavelength range from about 650 nm to about 680 nm is applied to the photosensitizing composition located within the otitis externa treatment site for a period from about 6 minutes to about 10 minutes using a laser with power at about 80 mW. The otitis externa was ameliorated.
A photosensitizing composition comprising of methylene blue at a concentration range of from about 0.001 wt % to about 0.1 wt % is applied to the otitis externa treatment site. Light at a wavelength range from about 650 nm to about 680 nm is applied to the photosensitizing composition located within the treatment site for a period from about 1 minute to about 20 minutes using a laser with power at a range from about 50 mW to about 300 mW. The otitis externa was ameliorated.
A photosensitizing composition comprising of toluidine blue at a concentration range of from about 0.001% wt % to about 0.1 wt % is applied to the otitis externa treatment site. Light at a wavelength range from about 620 nm to about 650 nm is applied to the photosensitizing composition located within the otitis externa treatment site for a period from about 1 minute to about 20 minutes using a laser with power at a range from about 50 mW to about 300 mW. The otitis externa was ameliorated.
For Examples V to VII, it was shown that there is a general inverse relationship between (1) the photosensitizer concentration and (2) the photodisinfection treatment time and/or the amount of power required for the light source. For example, higher concentration of photosensitizer requires less treatment time and/or lower light source power. Conversely, lower concentration of photosensitizer requires longer treatment time and/or higher light source power. Also, less treatment time requires higher concentration of photosensitizer and/or higher light source power.

E. coli [2] = assay: photodisinfection of E. coli biofilms in vitro (Periowave laser); format: cell-based, Escherichia coli
From the text: (§1) Photodisinfection treatments using methods contemplated by the present invention have been tested against MRSA, Escherichia coli (E. coli), and Enterococcus fecalis (E. fecalis) in vitro and reached high levels of disinfection in within seconds to one minute. Photosensitizing composition comprising of methylene blue at various concentrations ranging from about 0.005 wt % to 0.1 wt % was applied to biofilms of MRSA, E. coli and E. fecalis for about ten seconds. These biofilms were then illuminated by a laser light system at a wavelength of about 665 nm to about 675 nm for a period from about 0 seconds to about 60 seconds (e.g., accumulated energy level of about 0 J/cm^2 to about 9 J/cm^2). The laser light system used was the Periowave™ system which includes a low-intensity laser with power at about 240 mW and the optical probe described in PCT Patent Publication No. WO2006115761.

otitis externa [3] = assay: study on patients suffering otitis externa (photodisinfection, Periowave laser); format: in vivo, human; settings: about 0.01 wt % methylene blue by cotton swab, 665-675 nm, about 3 to 5 minutes (3-5 one minute cycles); many patients
Protocol: A study was conducted on patients suffering otitis externa. During the study, a photosensitizing composition comprising of methylene blue at a concentration of about 0.01 wt % was applied using a cotton swab to the treatment site as shown in FIG. 37. Thereafter and referring to FIGS. 38-39, light at a wavelength range from about 665 nm to about 675 nm was applied to the photosensitizing composition located within the treatment site 64 for a period from about 3 minutes to about 5 minutes (3-5 repetitive one minute cycles) using the Periowave™ laser light system.

E. fecalis = assay: photodisinfection of E. fecalis biofilms in vitro (Periowave laser); format: cell-based, Enterococcus fecalis; settings: methylene blue and a low power laser
From the text: as §1

E. coli [4] = assay: SEM evaluation of E. coli biofilms after photodisinfection; format: cell-based, Escherichia coli; settings: about 0.1 wt % methylene blue, about 10 seconds contact, 665-675 nm, about 30 seconds
Protocol: Biofilms heavily colonized with one to three layers of Escherichia coli (E. coli) organisms were contacted with a photosensitizing composition comprising methylene blue at a concentration of about 0.1 wt % for about 10 seconds and then illuminated at a wavelength of about 665 nm to about 675 nm for a period from about 30 seconds using the Periowave™ laser. Thereafter, these biofilms and the controlled E. coli biofilms (e.g., no photodisinfection treatment) were incubated for three hours in 0.9% saline and then fixed in 10% Formalin for scanning electron microscope (SEM) evaluation.

MRSA [5] = assay: SEM evaluation of MRSA biofilms after photodisinfection; format: cell-based, Methicillin-resistant Staphylococcus aureus; settings: about 0.1 wt % methylene blue, about 10 seconds contact, 665-675 nm, about 30 seconds
Protocol: Biofilms heavily colonized with one to four layers of MRSA organisms were contacted with a photosensitizing composition comprising methylene blue at a concentration of about 0.1 wt % for about 10 seconds and then illuminated at a wavelength of about 665 nm to about 675 nm for a period from about 30 seconds using the Periowave™ laser. Thereafter, these biofilms and the controlled MRSA biofilms (e.g., no photodisinfection treatment) were incubated overnight in 0.9 wt % saline and then fixed in 10 wt % Formalin for scanning electron microscope (SEM) evaluation.

MRSA [6] = assay: photodisinfection of MRSA biofilms in vitro (Periowave laser); format: cell-based, Methicillin-resistant Staphylococcus aureus
From the text: as §1

[7] = at least 0.02 wt % methylene blue, about ten seconds contact, about 665-675 nm laser about 240 mW for at least 15 seconds (at least 2.25 J/cm^2)
[8] = methylene blue and a low power laser

Compound | outcome of otitis externa (otitis externa [1]; Example V: about 0.1 wt %, 650-680 nm, about 6 to 10 minutes, laser about 80 mW) | outcome of otitis externa (otitis externa [1]; Example VI: about 0.001 to 0.1 wt %, 650-680 nm, about 1 to 20 minutes, laser about 50 to 300 mW) | reduction of E. coli (E. coli [2]; [7]) | elimination of E. coli by photodisinfection (E. coli [2]; [8]) | outcome of otitis externa (otitis externa [3]) | elimination of E. Fecalis by photodisinfection (E. fecalis) | reduction of E. coli in SEM photograph (FIG. 36 vs FIG. 35) (E. coli [4]) | reduction of MRSA in SEM photograph (FIG. 34 vs FIG. 33) (MRSA [5]) | reduction of MRSA (MRSA [6]; [7]) | elimination of MRSA by photodisinfection (MRSA [6]; [8]) | outcome of otitis externa (otitis externa [1]; Example VII: about 0.001 to 0.1 wt %, 620-650 nm, about 1 to 20 minutes, laser about 50 to 300 mW)
CN(C)c1ccc2nc3ccc(=[N+](C)C)cc-3sc2c1 [methylene blue] | ameliorated | ameliorated | at least three | effectively eliminated | ameliorated | effectively eliminated | substantial reduction of E. coli | substantial reduction of MRSA | at least three | effectively eliminated | 
Cc1cc2nc3ccc(N(C)C)cc3[s+]c2cc1N.[Cl-] [toluidine blue] |  |  |  |  |  |  |  |  |  |  | ameliorated

— US20070255356A1, “PHOTODI[…] DEVICES AND METHODS” (Ondine International, Ltd., priority 2006, published 2007)
